{
  "source": "patent US10022328B2",
  "about": "“Dialkyl sulfosuccinate compositions, method of making, and method of use” (CYTEC INDUSTRIES INC., priority 2015, dated 2018)",
  "data": [
    {"assay": "Contact angle of excipient solution in 0.1 M HCl with API pellet (sessile drop)", "assay_type": "physicochemical", "conditions": "0.1% excipient in 0.1 M HCl, 10-μL drops on pressed API pellet", "description": "A factor which contributes to the bioavailability of active pharmaceutical ingredients (API's) is the wetting of the API by an aqueous solution at a physiological pH. Wetting can affect dissolution rates of the API in the aqueous solution. Wetting can be assessed by measuring the contact angle between an aqueous solution and an API. In these examples, the sessile drop method was used to determine contact angles. Pellets of API were produced using an X-press 3630 with a 35-mm pressing die. The API was pressed into a 35-mm diameter aluminum pan using the standard 30-ton cycle in order to produce a flat surface. Drops (10-μL) of a 0.1% test solution of an excipient were used. The test solution was 0.1 M HCl, to simulate physiological conditions in the human stomach.", "units": {"Contact Angle with Fenofibrate": "°", "Contact Angle with Glipizide": "°", "Contact Angle with Ibuprofen": "°", "Contact Angle with Naproxen": "°", "Contact Angle with Ritonavir": "°"}, "values": [
      {"molecule": "CCCCCCCCCCCCOS(=O)(=O)[O-].[Na+]", "note": "[SLS, Sodium lauryl sulfate]", "Contact Angle with Fenofibrate": 47, "Contact Angle with Glipizide": 43, "Contact Angle with Ibuprofen": 54, "Contact Angle with Naproxen": 34, "Contact Angle with Ritonavir": 57},
      {"molecule": "Polyoxyethylene (20) sorbitan monolaurate [TWEEN ™ 20]", "Contact Angle with Fenofibrate": 58, "Contact Angle with Glipizide": 42, "Contact Angle with Ibuprofen": 45, "Contact Angle with Naproxen": 48, "Contact Angle with Ritonavir": 40},
      {"molecule": "Polyoxyethylene (20) sorbitan monooleate [TWEEN ™ 80]", "Contact Angle with Fenofibrate": 70, "Contact Angle with Glipizide": 55, "Contact Angle with Ibuprofen": 68, "Contact Angle with Naproxen": 52, "Contact Angle with Ritonavir": 51}
    ]}
  ]
}
